The values that follow come from ChEMBL document CHEMBL1201862, “PubChem BioAssay data set” (2004).

Among the test systems are HCT-15; NCI-H226; UACC-257; SF-295; CAKI-1; NCI-H460; IGROV-1; HL-60; SN12C; COLO 205; K562; HCT-116; RXF 393; MDA-MB-231; RPMI-8226; NCI/ADR-RES; SW-620.
Common to all, as to experiment: inhibition of tumour cell growth, NCI panel, 48 h

SMILES strings stand for the structures.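 Grown in 96-well plates, cells were treated for 48 hours with each compound at five concentrations. Insufficient inhibition: endpoint recorded as highest concentration tested. Here, GI50 denotes the concentration required for 50% inhibition of growth.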 The source made the active and inactive calls. No stated cut-off is given here; in the data, active = GI50 up to about 1.1 µM and inactive = higher.

Regarding `CC[P+]1(c2ccccc2)[C@@H](C)CC[C@@H]1C`, the GI50 in the test on HCT-15 was more than 100 µM; in the test on NCI-H226 it was > 100 µM (inactive); in the test on UACC-257 it was > 100 µM (inactive); in the test on SF-295, > 100 µM (inactive); in the test on CAKI-1 it was > 100 µM (inactive); in the test on NCI-H460, > 100 µM (inactive). In addition, the GI50 in the test with IGROV-1 was > 100 µM (inactive); in the test with HL-60 it was > 100 µM (inactive); in the test with SN12C it was > 100 µM (inactive); in the test on COLO 205, 85.1 µM (inactive); in the test on K562 it was 96.2 µM (inactive); in the test on HCT-116, > 100 µM (inactive). The GI50 in the test with RXF 393, with MDA-MB-231, in the test with RPMI-8226, in the test on NCI/ADR-RES and with SW-620 was > 100 µM (inactive) throughout.
`C[C@@H](c1ccccc1)N1CN(C(=O)OCc2ccccc2)C(CO)C1=O` (some centres undefined): the GI50 is more than 100 µM with HCT-15; > 100 µM (inactive) in the test on NCI-H226; 95.7 µM (inactive) in the test on UACC-257; > 100 µM (inactive) in the test with SF-295; > 100 µM (inactive) in the test on CAKI-1; > 100 µM (inactive) in the test with NCI-H460. Besides, the GI50 in the test on IGROV-1 is > 100 µM (inactive); in the test on HL-60 it was > 100 µM (inactive); with SN12C, > 100 µM (inactive); in the test on COLO 205, > 100 µM (inactive); in the test with K562, 84.5 µM (inactive); in the test with HCT-116, > 100 µM (inactive). The GI50 in the test on RXF 393 is 61.1 µM (inactive); in the test on MDA-MB-231, 87.3 µM (inactive); in the test on RPMI-8226, 93.1 µM (inactive); in the test on NCI/ADR-RES, > 100 µM (inactive); in the test on SW-620, > 100 µM (inactive).
Consider `O=c1c(-c2c(-c3ccccc3)oc3ccc(Cl)cc3c2=O)c(-c2ccccc2)oc2ccc(Cl)cc12`, for which the GI50 is more than 100 µM in the test on HCT-15; > 100 µM (inactive) in the test on NCI-H226; > 100 µM (inactive) in the test with UACC-257; > 51.8 µM (inactive) with SF-295; > 100 µM (inactive) with CAKI-1; > 94.8 µM (inactive) in the test on NCI-H460. Moreover, the GI50 in the test on IGROV-1 is > 56.2 µM (inactive); in the test with HL-60, 0.0302 µM (active); in the test on SN12C, > 100 µM (inactive); with COLO 205, > 100 µM (inactive); with K562, > 100 µM (inactive); in the test with HCT-116 it was > 78.3 µM (inactive). Besides, the GI50 was > 100 µM (inactive) in the test on RXF 393; > 40.3 µM (inactive) in the test with MDA-MB-231; > 100 µM (inactive) with RPMI-8226; > 100 µM (inactive) in the test with NCI/ADR-RES; > 100 µM (inactive) with SW-620.
As for `CC1=CC(=O)N(n2c(-c3ccccc3)n[nH]c2=O)C1=O`, the GI50 in the test on HCT-15 is more than 100 µM; in the test with NCI-H226, > 100 µM (inactive); with UACC-257 it was > 100 µM (inactive); with SF-295 it was > 100 µM (inactive); in the test with CAKI-1, > 100 µM (inactive); in the test on NCI-H460 it was > 100 µM (inactive). For the same molecule, the GI50 with IGROV-1, with HL-60, in the test on SN12C, in the test with COLO 205, in the test on K562 and in the test with HCT-116 was > 100 µM (inactive) each time. Moreover, the GI50 with RXF 393, with MDA-MB-231, in the test on RPMI-8226, in the test with NCI/ADR-RES and with SW-620 was > 100 µM (inactive) each time.
With `O=C(O)CCC(C(=O)O)N1C(=O)c2ccccc2C1=O` (centres undefined), the GI50 with HCT-15 is more than 100 µM; in the test with NCI-H226, > 100 µM (inactive); in the test with UACC-257 it was > 100 µM (inactive); with SF-295, > 100 µM (inactive); with CAKI-1, > 100 µM (inactive); with NCI-H460 it was > 100 µM (inactive). The GI50 in the test on IGROV-1, in the test on HL-60, in the test on SN12C, in the test with COLO 205, in the test with K562 and in the test on HCT-116 was > 100 µM (inactive) throughout. Further, the GI50 in the test with RXF 393, with MDA-MB-231, in the test with RPMI-8226, in the test with NCI/ADR-RES and in the test with SW-620 was > 100 µM (inactive) in each case.
Regarding `C=C(C)C1CCC2(C)C1CCC1(C)C2CCC2C3(C)C4OC(OC4=O)C(C)(C)C3CCC21C` (centres undefined), the GI50 was more than 100 µM in the test with HCT-15; > 100 µM (inactive) in the test on NCI-H226; > 100 µM (inactive) with UACC-257; > 100 µM (inactive) in the test with SF-295; 92 µM (inactive) in the test on CAKI-1; > 100 µM (inactive) in the test with NCI-H460. Moreover, the GI50 is > 100 µM (inactive) in the test with IGROV-1; 47.3 µM (inactive) with HL-60; > 100 µM (inactive) with SN12C; 48.3 µM (inactive) in the test with COLO 205; 33 µM (inactive) with K562; > 100 µM (inactive) in the test with HCT-116. Further, the GI50 in the test on RXF 393, in the test on MDA-MB-231, in the test on RPMI-8226, in the test with NCI/ADR-RES and in the test on SW-620 was > 100 µM (inactive) throughout.
As to `O=C1CCCC/C1=C(\Br)I`, the GI50 with HCT-15 is 3.4 µM; with NCI-H226, 23.4 µM (inactive); in the test with UACC-257, 16.6 µM (inactive); with SF-295, 17.5 µM (inactive); in the test on CAKI-1, 12.4 µM (inactive); in the test on NCI-H460, 15.3 µM (inactive). Besides, the GI50 is 9.38 µM (inactive) with IGROV-1; 2.12 µM (inactive) with HL-60; 16.9 µM (inactive) with SN12C; 15.1 µM (inactive) with COLO 205; 2.69 µM (inactive) in the test with K562; 12 µM (inactive) in the test with HCT-116. The GI50 was 15.6 µM (inactive) in the test on RXF 393; 17.6 µM (inactive) in the test on MDA-MB-231; 2.86 µM (inactive) with RPMI-8226; 19 µM (inactive) in the test on NCI/ADR-RES; 3.39 µM (inactive) with SW-620.
As to `O=C1C(N2CCN(c3ccccn3)CC2)=C(Cl)C(=O)c2ncccc21`, the GI50 in the test on HCT-15 is 1.95 µM; with NCI-H226, > 10 µM (inactive); in the test with UACC-257, 2.96 µM (inactive); in the test with SF-295, > 10 µM (inactive); in the test with CAKI-1, 0.433 µM (active); in the test with NCI-H460, > 10 µM (inactive). Also, the GI50 was > 7 µM (inactive) with IGROV-1; 0.105 µM (active) in the test with HL-60; 1.66 µM (inactive) in the test with SN12C; 1.96 µM (inactive) in the test on COLO 205; 1.51 µM (inactive) with K562; 1.71 µM (inactive) with HCT-116. Also, the GI50 was 1.98 µM (inactive) with RXF 393; 3.63 µM (inactive) in the test with MDA-MB-231; 0.353 µM (active) in the test with RPMI-8226; 5.22 µM (inactive) in the test with NCI/ADR-RES; 1.23 µM (inactive) in the test with SW-620.
`CCOC(=O)/C(C#N)=C1\c2c([nH]c(=S)[nH]c2=O)Oc2ccc3ccccc3c21`: the GI50 was 71.6 µM in the test on HCT-15; 18 µM (inactive) in the test on NCI-H226; > 100 µM (inactive) in the test on UACC-257; > 100 µM (inactive) with SF-295; 75 µM (inactive) with CAKI-1; 0.0857 µM (active) with NCI-H460. Besides, the GI50 was > 100 µM (inactive) in the test on IGROV-1; 2.64 µM (inactive) with HL-60; 41.1 µM (inactive) with SN12C; 19.5 µM (inactive) in the test with COLO 205; > 100 µM (inactive) in the test with K562; 67.3 µM (inactive) in the test on HCT-116. Moreover, the GI50 in the test on RXF 393 was 36.2 µM (inactive); in the test with MDA-MB-231, 24.8 µM (inactive); in the test on RPMI-8226 it was 33 µM (inactive); with NCI/ADR-RES, 59.3 µM (inactive); in the test on SW-620, 4.06 µM (inactive).
For `COc1ccc(C(C#N)NC23CC4CC(CC(C4)C2)C3)cc1` (centres undefined), the GI50 was more than 100 µM with HCT-15; > 100 µM (inactive) with NCI-H226; > 100 µM (inactive) in the test on UACC-257; > 100 µM (inactive) with SF-295; > 100 µM (inactive) in the test with CAKI-1; > 100 µM (inactive) with NCI-H460. The GI50 was > 100 µM (inactive) in the test with IGROV-1; 88.5 µM (inactive) in the test with HL-60; > 100 µM (inactive) with SN12C; > 100 µM (inactive) in the test on COLO 205; > 100 µM (inactive) with K562; > 100 µM (inactive) in the test with HCT-116. For the same molecule, the GI50 with RXF 393, with MDA-MB-231, in the test with RPMI-8226, in the test on NCI/ADR-RES and with SW-620 was > 100 µM (inactive) throughout.
On to `CC(=O)OCC1OC(n2c(=O)[nH]c(=O)c3sccc32)C(Br)C1OC(C)=O` (centres undefined), for which the GI50 in the test on HCT-15 is more than 100 µM; in the test with NCI-H226, > 100 µM (inactive); with UACC-257, > 100 µM (inactive); in the test on SF-295, > 100 µM (inactive); in the test on CAKI-1, > 100 µM (inactive); with NCI-H460, > 100 µM (inactive). Moreover, the GI50 in the test with IGROV-1, with HL-60, in the test on SN12C, in the test on COLO 205, in the test on K562 and in the test with HCT-116 was > 100 µM (inactive) in each case. In addition, the GI50 in the test on RXF 393, in the test on MDA-MB-231, in the test with RPMI-8226, with NCI/ADR-RES and with SW-620 was > 100 µM (inactive) each time.
With `CC(C)=CC1CC(C)C2(CCC3(C)CC4C(C(=O)CC4(C)O)/C(C=O)=C\CC32)O1` (centres undefined), the GI50 with HCT-15 is 0.0243 µM; with NCI-H226, 0.0689 µM (active); in the test on UACC-257, 0.12 µM (active); in the test with SF-295, 0.191 µM (active); with CAKI-1 it was 0.0604 µM (active); in the test with NCI-H460, 0.133 µM (active). Further, the GI50 in the test on IGROV-1 is 0.144 µM (active); in the test on HL-60 it was < 0.0173 µM (active); in the test with SN12C, 0.0638 µM (active); with COLO 205 it was 0.0596 µM (active); in the test with K562, 0.0614 µM (active); in the test on HCT-116, 0.0407 µM (active). In addition, the GI50 is 0.0373 µM (active) in the test with RXF 393; 0.0968 µM (active) in the test with MDA-MB-231; 0.0255 µM (active) in the test on RPMI-8226; 0.11 µM (active) in the test on NCI/ADR-RES; 0.0205 µM (active) in the test with SW-620.
